The source of these data is patent publication US20250326753A1, “DUAL CXCR4-BTK INHIBITORS” (X4 Pharmaceuticals, Inc., priority 2022, published 2025).

The target of one experiment is T1, TRKA (Homo sapiens, UniProt P04629).
T1 construct: purchased Reaction Biology Europe GmbH
Briefly: PanQinase kinase panel: TRKA. The experiment is classed as biochemical. As for the experimental part:
(§1) Screening procedures were performed in accordance with the company's on-line protocol [accessed on-line Mar.
(§2) For each kinase, the median value of the cpm of three wells was defined as “low control” (n=3). This value reflects unspecific binding of radioactivity to the plate in the absence of a protein kinase but in the presence of the substrate. Additionally, for each kinase the median value of the cpm of three other wells was taken as the “high control,” i.e. full activity in the absence of any inhibitor (n=3). The difference between high and low control of each enzyme was taken as 100% activity.
(§3) As part of the data evaluation the low control of each kinase was subtracted from the high control value as well as from their corresponding “compound values”. The residual activity (in %) for each compound well was calculated by using the following formula: Res. Activity (%)=100×[(signal of compound−low control)/(high control−low control)].

The next experiment has as its target T2, PAK1 (Homo sapiens, UniProt Q13153).
T2 construct: purchased Reaction Biology Europe GmbH
The experiment can be described thus: PanQinase kinase panel: PAK1. Format: biochemical. As to conditions: read-out: INHIBITORY EFFECT @ 1 uM: PAK1. As for the experimental part:
as §1, §2, §3

The subject of the next experiment is GBM-U251MG. The experiment can be described thus: GBM cell proliferation, U251MG (cell-based cancer efficacy assays). The following applies: Homo sapiens, U-251; Table 6B.
Another experiment addresses T3, FYN (Homo sapiens, UniProt P06241).
T3 construct: purchased Reaction Biology Europe GmbH
The experiment can be described thus: PanQinase kinase panel: FYN. Format: biochemical. As to conditions: read-out: INHIBITORY EFFECT @ 1 uM: FYN. As for the experimental part: as §1, §2, §3

A further experiment addresses T4, SRC (Homo sapiens, UniProt P12931).
T4 construct: purchased Reaction Biology Europe GmbH
Briefly: PanQinase kinase panel: SRC. Format: biochemical. The following applies: read-out: INHIBITORY EFFECT @ 1 uM: SRC. As for the experimental part:
as §1, §2
(§4) As part of the data evaluation the low control of each kinase was subtracted from the high control value as well as from their corresponding “compound values”.

For a further experiment, the target named is T5, YES (Homo sapiens, UniProt P07947).
T5 construct: purchased Reaction Biology Europe GmbH
The experiment can be described thus: PanQinase kinase panel: YES. The experiment is classed as biochemical. As to conditions: read-out: INHIBITORY EFFECT @ 1 uM: YES. The procedure: as §1, §2, §4

The target of a further experiment is T6, LIMK1 (Homo sapiens, UniProt P53667).
T6 construct: purchased Reaction Biology Europe GmbH
Briefly: PanQinase kinase panel: LIMK1. The experiment is classed as biochemical. The procedure: as §1, §2, §3

[1] abbreviates: at 1 μM, read-out: inhibition of TRKA.
The mark [2] stands for this setting: read-out: INHIBITORY EFFECT @ 1 uM: TRKA.
[3] abbreviates: read-out: INHIBITORY EFFECT @ 1 uM: LIMK1.

Read-outs that look alike come from different tables or passages of the source. Where only a bound is given, the exact number is not on record here.

T6 sequence (P53667 whole entry): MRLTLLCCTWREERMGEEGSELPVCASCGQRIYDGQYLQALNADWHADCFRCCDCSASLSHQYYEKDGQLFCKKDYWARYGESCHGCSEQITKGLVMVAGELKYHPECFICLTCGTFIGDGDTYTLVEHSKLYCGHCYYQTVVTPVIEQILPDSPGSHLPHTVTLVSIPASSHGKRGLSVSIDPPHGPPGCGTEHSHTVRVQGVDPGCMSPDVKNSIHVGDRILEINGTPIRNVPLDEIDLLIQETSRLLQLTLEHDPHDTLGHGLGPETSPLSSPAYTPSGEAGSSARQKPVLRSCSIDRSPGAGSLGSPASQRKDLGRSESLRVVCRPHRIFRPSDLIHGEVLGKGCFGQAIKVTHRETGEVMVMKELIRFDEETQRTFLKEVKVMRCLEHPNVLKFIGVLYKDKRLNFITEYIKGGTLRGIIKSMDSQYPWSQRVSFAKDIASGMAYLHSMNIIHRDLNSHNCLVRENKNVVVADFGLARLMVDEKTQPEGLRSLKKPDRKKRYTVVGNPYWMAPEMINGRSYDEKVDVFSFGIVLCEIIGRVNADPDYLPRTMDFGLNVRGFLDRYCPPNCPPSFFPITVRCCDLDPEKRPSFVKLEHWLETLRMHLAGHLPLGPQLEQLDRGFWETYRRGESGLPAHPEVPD
T2 sequence (Q13153 whole entry): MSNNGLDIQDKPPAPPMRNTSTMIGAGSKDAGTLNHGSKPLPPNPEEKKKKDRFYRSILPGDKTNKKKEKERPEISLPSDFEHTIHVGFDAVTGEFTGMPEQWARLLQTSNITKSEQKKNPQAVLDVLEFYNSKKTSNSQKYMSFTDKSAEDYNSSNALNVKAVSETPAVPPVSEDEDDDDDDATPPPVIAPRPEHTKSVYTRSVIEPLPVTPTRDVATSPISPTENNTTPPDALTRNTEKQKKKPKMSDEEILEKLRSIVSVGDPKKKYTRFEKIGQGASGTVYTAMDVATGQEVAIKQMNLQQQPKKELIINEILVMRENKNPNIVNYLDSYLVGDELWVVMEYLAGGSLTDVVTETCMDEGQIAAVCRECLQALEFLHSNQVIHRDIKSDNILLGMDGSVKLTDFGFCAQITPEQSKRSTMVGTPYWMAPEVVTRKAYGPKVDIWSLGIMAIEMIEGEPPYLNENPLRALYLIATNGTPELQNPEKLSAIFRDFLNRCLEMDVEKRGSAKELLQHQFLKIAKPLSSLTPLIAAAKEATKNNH
T1 sequence (P04629 33-796): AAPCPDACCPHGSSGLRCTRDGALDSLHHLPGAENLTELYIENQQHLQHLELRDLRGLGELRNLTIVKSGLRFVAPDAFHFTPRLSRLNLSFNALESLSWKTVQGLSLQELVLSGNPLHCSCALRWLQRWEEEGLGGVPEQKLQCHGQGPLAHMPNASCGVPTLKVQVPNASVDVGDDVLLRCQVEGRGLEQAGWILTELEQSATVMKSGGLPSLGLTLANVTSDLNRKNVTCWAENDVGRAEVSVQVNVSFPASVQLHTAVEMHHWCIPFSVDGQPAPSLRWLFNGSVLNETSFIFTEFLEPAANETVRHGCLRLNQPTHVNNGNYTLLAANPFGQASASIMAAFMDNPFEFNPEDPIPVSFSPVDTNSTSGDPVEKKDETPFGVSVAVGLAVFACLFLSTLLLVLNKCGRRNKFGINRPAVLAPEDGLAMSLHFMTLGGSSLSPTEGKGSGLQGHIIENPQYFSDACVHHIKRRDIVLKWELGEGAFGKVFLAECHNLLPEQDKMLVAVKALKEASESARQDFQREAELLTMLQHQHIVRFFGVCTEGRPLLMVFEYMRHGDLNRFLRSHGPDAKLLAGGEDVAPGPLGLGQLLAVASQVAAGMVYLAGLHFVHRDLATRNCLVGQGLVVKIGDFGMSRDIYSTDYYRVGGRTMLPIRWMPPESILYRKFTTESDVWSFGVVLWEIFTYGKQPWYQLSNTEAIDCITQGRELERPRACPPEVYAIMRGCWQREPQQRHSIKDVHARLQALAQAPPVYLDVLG
T3 sequence (P06241 whole entry): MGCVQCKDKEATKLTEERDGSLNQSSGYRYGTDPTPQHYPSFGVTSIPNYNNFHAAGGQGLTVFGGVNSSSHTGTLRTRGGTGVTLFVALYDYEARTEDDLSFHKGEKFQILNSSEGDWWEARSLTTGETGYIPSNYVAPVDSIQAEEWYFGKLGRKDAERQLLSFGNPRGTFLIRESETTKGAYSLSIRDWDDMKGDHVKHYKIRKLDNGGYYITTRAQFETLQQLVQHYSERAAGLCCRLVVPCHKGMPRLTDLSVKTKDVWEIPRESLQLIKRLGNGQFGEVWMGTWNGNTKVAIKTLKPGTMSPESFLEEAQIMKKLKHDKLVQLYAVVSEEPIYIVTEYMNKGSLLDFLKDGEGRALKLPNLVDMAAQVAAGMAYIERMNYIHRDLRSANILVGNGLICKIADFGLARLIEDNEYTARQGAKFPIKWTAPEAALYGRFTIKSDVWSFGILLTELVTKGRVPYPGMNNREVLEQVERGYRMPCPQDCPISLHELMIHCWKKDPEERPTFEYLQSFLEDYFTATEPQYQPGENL
T4 sequence (P12931 whole entry): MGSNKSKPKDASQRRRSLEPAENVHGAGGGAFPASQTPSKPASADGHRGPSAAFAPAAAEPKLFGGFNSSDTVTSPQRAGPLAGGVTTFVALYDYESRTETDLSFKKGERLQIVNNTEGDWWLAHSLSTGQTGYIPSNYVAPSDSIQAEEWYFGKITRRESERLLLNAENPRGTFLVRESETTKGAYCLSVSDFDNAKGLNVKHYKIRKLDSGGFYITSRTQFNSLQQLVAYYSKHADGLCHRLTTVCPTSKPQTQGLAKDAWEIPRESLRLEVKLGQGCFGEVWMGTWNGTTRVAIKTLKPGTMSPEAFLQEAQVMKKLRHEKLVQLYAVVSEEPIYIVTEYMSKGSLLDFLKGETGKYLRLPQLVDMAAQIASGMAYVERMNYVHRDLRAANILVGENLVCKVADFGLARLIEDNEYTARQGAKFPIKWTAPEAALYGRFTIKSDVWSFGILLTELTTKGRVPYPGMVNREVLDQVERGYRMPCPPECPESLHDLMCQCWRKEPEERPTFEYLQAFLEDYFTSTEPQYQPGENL
T5 sequence (P07947 whole entry): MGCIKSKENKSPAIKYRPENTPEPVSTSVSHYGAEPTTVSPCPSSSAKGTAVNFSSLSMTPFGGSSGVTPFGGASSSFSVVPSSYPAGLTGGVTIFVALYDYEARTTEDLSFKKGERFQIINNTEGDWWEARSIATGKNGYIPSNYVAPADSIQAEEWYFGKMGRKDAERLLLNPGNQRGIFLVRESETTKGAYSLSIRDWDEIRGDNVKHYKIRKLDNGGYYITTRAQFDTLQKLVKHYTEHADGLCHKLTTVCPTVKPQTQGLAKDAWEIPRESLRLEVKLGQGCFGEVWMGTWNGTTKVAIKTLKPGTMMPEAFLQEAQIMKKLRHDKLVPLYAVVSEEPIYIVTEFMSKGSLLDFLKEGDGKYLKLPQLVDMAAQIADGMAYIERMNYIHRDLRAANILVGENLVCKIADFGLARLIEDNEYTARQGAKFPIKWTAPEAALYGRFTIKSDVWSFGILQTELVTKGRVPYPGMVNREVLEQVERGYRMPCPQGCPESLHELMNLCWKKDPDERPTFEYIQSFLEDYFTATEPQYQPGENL

`O=C(c1ccc(Oc2ccccc2)cc1Cl)c1c[nH]c2ncnc(N[C@@H]3CC[C@@H](CO)OC3)c12` [ARQ-531, (2-chloro-4-phenoxyphenyl) (4-(((3R,6S)-6-(hydroxymethyl)tetrahydro-2H-pyran-3-yl)amino)-7H-pyrrolo[2,3-d]pyrimidin-5-yl) methanone]: the results for the inhibition at 1 µM on TRKA (setting [1]), on TRKA (setting [2]) and on PAK1 were no less than 50%, 90 to 100% and 50 to 69%, respectively.

In the experiment with GBM-U251MG, `Cc1cccnc1[C@H]1CCC[C@@H](c2ncccc2C)N1CCN1CCN(C(=O)c2ccc(-c3cc4c(-c5cccc(NC(=O)c6ccccc6)c5C)ncnc4[nH]3)cc2)CC1` [Compound I-10, N-(3-(6-(4-(4-(2-((2R,6S)-2,6-bis(3-methylpyridin-2-yl)piperidin-1-yl)ethyl)piperazine-1-carbonyl)phenyl)-7H-pyrrolo[2,3-d]pyrimidin-4-yl)-2-methylphenyl)benzamide] had an Emax of 98%. The concentration for half-maximal inhibition (IC50) (commonly the concentration that gives 50% inhibition) in the experiment with GBM-U251MG was found to be 2120 nM. The inhibition at 1 µM was less than 50% at FYN; less than 50% on SRC; less than 50% on YES; 50 to 89% on TRKA (setting [1]); 70 to 89% on TRKA (setting [2]); 50 to 89% on LIMK1 (at 1 μM, read-out: inhibition of LIMK1). Also, the inhibition at 1 µM on LIMK1 (setting [3]) is 70 to 89%; on PAK1 it was less than 50%.

In the experiment on GBM-U251MG, `Cc1cc(-c2ccnc(Nc3cnn(CCN4[C@@H](c5ncccc5C)CCC[C@H]4c4ncccc4C)c3)n2)ccc1CNC(=O)N1CC(OC(C)C)C1` [Compound I-11] had an Emax of 82% and an IC50 of 930 nM.

For `COc1ccc(F)cc1C(=O)NCc1ccc(-c2nn([C@@H](C)C(F)(F)F)c(N)c2C(N)=O)cc1` [LOXO-305, pirtobrutinib], the inhibition at 1 µM on FYN, on SRC, at YES, on TRKA (setting [2]), on LIMK1 (setting [3]) and at PAK1 was less than 50% in each case.

As to `C=CC(=O)N1CCC([C@@H]2CCNc3c(C(N)=O)c(-c4ccc(Oc5ccccc5)cc4)nn32)CC1` [Zanubrutinib, (7S)-2-(4-phenoxyphenyl)-7-(1-prop-2-enoylpiperidin-4-yl)-4,5,6,7-tetrahydropyrazolo[1,5-a]pyrimidine-3-carboxamide], the inhibition at 1 µM at TRKA (setting [2]), on LIMK1 (setting [3]) and on PAK1 was less than 50% in each case.
